In patent US20090053290A1, “TRANSDERMAL DRUG DELIVERY COMPOSITIONS AND TOPICAL COMPOSITIONS FOR APPLICATION ON THE SKIN” (priority 2006, published 2009):

Experiments:
onychomycosis = conditions: nail lacquer, topical; cited from earlier work
[1] = in vivo; cited from earlier work
bovine tendon = assay: Melting temperature measurement of fixed tissue (cross-linking), tendon; conditions: 48 hours; PA 0.5% in PBS, GA 0.625% in PBS; n = 3; in °C
Experimental: (§1) The fixed tissues and fresh tissues were assayed for their melting temperature by heating tissue strips (1×2 cm^2, n=3). The melting temperature was recorded when tissues started to shrink.

bovine pericardium = assay: Melting temperature measurement of fixed tissue (cross-linking), pericardium; conditions: 48 hours; PA 0.5% in PBS, GA 0.625% in PBS; n = 3; in °C
Experimental: as §1

collagenase = format: biochemical
Experimental: Tissue integrity was checked at the end of the incubation using a standard histological method (hematoxylin-eosin (H&E)). […] At predetermined intervals, 1.0 mL of solution was taken out and filtered through a 0.45-μM cellulose filter to separate solubilized collagen from insolubilized matrix. The amount of solubilized collagen was determined after total acid hydrolysis in 6N HCl for 24 hours at 100° C. by measuring hydroxyproline. The results are expressed as a percentage of the total collagen solubilized.

human skin fibroblasts = assay: Cell proliferation and collagen synthesis of fibroblasts cultured on treated pericardium; format: cell-based; conditions: p<0.005 for treated pericardium, FIG. 9
Experimental: Discs, 15 mm in diameter, were punched out from PA-treated bovine pericardium and inserted into the bottom of 24-well plates. After washing and equilibrating with PBS, human skin fibroblasts (8×10^4/well, third passage kindly provided by Dr. Warren Garner, University of Southern California) were placed on top of the tissues. After 48 hours of culture in 10% FBS/DMEM, the medium was changed to a labeling medium ([^3H]thymidine, 10 μCi/mL, 0.5% FBS/DMEM) followed by a 24 hour labeling period. Cell proliferation was assayed and collagen synthesis recorded as [^3H]OH-proline incorporation in a culture medium containing 25 μg/mL ascorbic acid, 25 μg/mL β-APN and 25 μCi/mL [^3H]proline in 0.5% FBS/DMEM after labeling for 48 hours.

Fischer 344 rats = tested on: Fischer 344 rats
Excerpt: Three-week-old Fischer 344 rats were obtained from Harlan Sprague Dawley, Inc. (Indianapolis, Ind.). NIH and University of Southern California IACUC guidelines for the care and use of laboratory animals were observed. […] The samples were retrieved after 3 and 6 weeks post-operation, and samples were processed for H&E and von Kossa staining, the latter to determine the extent of calcification.

NIH 3T3 cells = conditions: mouse, 72 h
Experimental: NIH 3T3 cells were used in these studies. Cells were cultured in 24-well plates at a density of 5×10^6 cells/well in 10% FBS/DMEM overnight. […] Cells were incubated for 72 hours before cell counting and morphological studies.

[2] = in vivo; cited from earlier work; remark: listed apart in the source

## Cc1cc(C2CCCCC2)n(O)c(=O)c1 [Ciclopirox]
onychomycosis
  cure rate: < 10%

## CC(=O)Oc1ccccc1C(=O)O [Aspirin, aspirin]
[1]
  period of inhibition of blood clotting: 4 to 7 days

## O=CCCCC=O [GA, glutaraldehyde]
Bovine tendon
  Melting temperature, tendon: 84 ± 1.0
Bovine pericardium
  Melting temperature, pericardium: 94 ± 1.5
collagenase
  collagen fibril structure after 24 hours of collagenase digestion (H&E): remained intact
Human skin fibroblasts
  collagen synthesis / deposition (hydroxyproline incorporation): inhibit collagen synthesis
Fischer 344 rats; periods ranging from 3 and 6 weeks
  degradation of fixed tissue after subcutaneous implantation (summary): no apparent degradation
Fischer 344 rats; rat, in vivo, sc
  calcification of implant (Von Kossa staining): dystrophic calcification
Fischer 344 rats; subcutaneous
  implant degradation, six weeks postoperatively: still intact
  implant integrity, three weeks postoperatively: retained their integrity
Fischer 344 rats; subcutaneous, treated pericardium, H&E
  tissue reaction to implant, one week postoperatively: lesser inflammatory reaction
NIH 3T3 cells
  concentration above which cells could not survive: greater than 0.6 μg/mL
  concentration at which cytotoxicity was observed: ≤ 600 ng/mL

## CC1=C(/C=C/C(C)=C/C=C/C(C)=C/C(=O)O)C(C)(C)CCC1 [tretinoin, All-trans-retinoic acid]
[2]
  absorption: less than 2%
